Assay results taken from US4016158A, “Cephalosporin derivatives” (Roussel-UCLAF, priority 1971, dated 1977).
≈ marks a conversion by molar mass, not a printed value. Like-named read-outs stand apart in the source and are kept apart here.

What was measured:
[1] = test system: Bac. Subt.; test: MIC, diffusion method in gelose medium at pH 7 (Table I); type: cell-based; conditions: Bac. Subt., pH 7; read-out: minimum concentration of inhibition
Procedure: (§1) The antibiotic activity was determined by the diffusion method in a gelose medium at a pH of 7. The following Table expresses the minimum concentration of inhibition in mcg/ml (CMl) for the products against different microbial strains.

[2] = test system: Strept. hemoly. Todd Hewitt; test: as above; type: cell-based; conditions: Strept. hemoly. Todd Hewitt, pH 7; read-out: minimum concentration of inhibition
Procedure: as §1

[3] = transcutaneous toxicity in rats; conditions: rat, in vivo, topical or ocular, male rats
[4] = test system: Shigella sonnei; test: bactericidal activity (germs still alive); type: cell-based; parameters: key to germs still alive: +++: all the germs are still alive; +: it remains some colonies; -: it does not remain any germ
Procedure: (§2) The bactericidal activity of product A was ascertained by determining the number of germs still alive after treatment with increasing doses of antibiotic on a liquid media. From the cultures in tubes having 72 hours (previously described method), were placed on agar in Petri dishes a constant sample of the last tube having grown and of the following tubes where no more growth in transillumination is observed. After 48 hours of culture in the Petri dishes, the number of colonies was ascertained.

[5] = test system: Staphylococcus aureus 9482; test: bactericidal activity (germs still alive); type: cell-based; parameters: key to germs still alive: +++: all the germs are still alive; +: it remains some colonies; -: it does not remain any germ
Procedure: as §2

[6] = test system: Staphylococcus aureus 8514; test: bactericidal activity (germs still alive); type: cell-based; parameters: key to germs still alive: +++: all the germs are still alive; +: it remains some colonies; -: it does not remain any germ
Procedure: as §2

[7] = test system: Staphylococcus aureus 54146; test: bactericidal activity (germs still alive); type: cell-based; parameters: key to germs still alive: +++: all the germs are still alive; +: it remains some colonies; -: it does not remain any germ
Procedure: as §2

[8] = test system: Staphylococcus aureus 1098; test: bactericidal activity (germs still alive); type: cell-based; parameters: key to germs still alive: +++: all the germs are still alive; +: it remains some colonies; -: it does not remain any germ
Procedure: as §2

[9] = oral toxicity in rats; conditions: rat, in vivo
Procedure: The oral toxicity of product A was determined on homogenous groups of 10 male rats weighing 100 to 110 g by administering orally a 0.25% by weight dispersion of product A in an aqueous suspension of carboxymethyl cellulose with an esophagus probe. […] The rats in the test were held in a place in which the air was filtered and sterilized by ultraviolet light and the temperature was held at 22° ± 1° C with a controlled humidity.

[10] = test system: Staphylococcus aureus; test: in vivo antibacterial activity, experimental staphylococcia in mice, oral
Procedure: The in vivo antibacterial activity for product A was determined in mice with an experimental staphylococcia. 50 male mice weighing 20 to 23 g were divided into 5 groups of 10 mice each and all were infected interperitoneally with 0.5 ml of a 15 hour culture of Staphylococcus aureus in Pasteur nutritive broth diluted 1/3 with distilled water. Each mouse received product A orally 1 hour and 5 hours after the infection.

[11] = test system: Staphylococcus aureus 9373; test: MIC (Table II); type: cell-based; conditions: Staphylococcus aureus, 9373, read-out: minimum inhibition concentration
Procedure: as §1
(§3) Using the same procedure as in Table I, the minimum inhibition concentration in mcg/ml was determined against different microbial strains with L(-) cis 7-[D(-)-α-aminophenylacetamido]-3-isopropyl-3-cepheme-4-carboxylic acid (product A) of Example 9.

[12] = test system: Klebsiella pneumoniae 52145; test: MIC (Table II); type: cell-based; conditions: read-out: minimum inhibition concentration
Procedure: as §1, §3

[13] = test system: Streptococcus hemolyticus 920; test: MIC (Table II); type: cell-based; conditions: Streptococcus pyogenes, read-out: minimum inhibition concentration
Procedure: as §1, §3

[14] = test system: Escherichia coli 5369; test: MIC (Table II); type: cell-based; conditions: read-out: minimum inhibition concentration
Procedure: as §1, §3

[15] = test system: Escherichia coli 4965; test: MIC (Table II); type: cell-based; conditions: read-out: minimum inhibition concentration
Procedure: as §1, §3

[16] = test system: Escherichia coli Taylor; test: MIC (Table II); type: cell-based; conditions: read-out: minimum inhibition concentration
Procedure: as §1, §3

[17] = test system: Escherichia coli 070; test: MIC (Table II); type: cell-based; conditions: read-out: minimum inhibition concentration
Procedure: as §1, §3

[18] = test system: Streptococcus hemolyticus 561; test: MIC (Table II); type: cell-based; conditions: Streptococcus pyogenes, read-out: minimum inhibition concentration
Procedure: as §1, §3

[19] = test system: Salmonella typhimurium 420; test: MIC (Table II); type: cell-based; conditions: Salmonella enterica, read-out: minimum inhibition concentration
Procedure: as §1, §3

[20] = test system: Escherichia coli 152; test: MIC (Table II); type: cell-based; conditions: read-out: minimum inhibition concentration
Procedure: as §1, §3

[21] = test system: Escherichia coli 1751; test: MIC (Table II); type: cell-based; conditions: read-out: minimum inhibition concentration
Procedure: as §1, §3

[22] = solubility; type: physicochemical
[23] = 0.5 mg repeated two times, oral
[24] = 0.5 mg repeated two times, oral, 10 mice
[25] = 1.0 mg repeated two times, oral
[26] = 2.0 mg repeated two times, oral
[27] = 3.0 mg repeated two times, oral

Compound `CC(C)C1=C(C(=O)O)N2C(=O)[C@@H](NC(=O)[C@H](N)c3ccccc3)[C@H]2SC1` [Example 9, L (+) cis 7-[D (-)-α-aminophenylacetamido]-3-isopropyl-3-cepheme-4-carboxylic acid] has an MIC [1] of 0.2 µg/mL (≈ 0.533 µM), an MIC [2] of 10 µg/mL (≈ 26.6 µM) and an LD50 at 192 h [3] greater than 1600 mg/kg. The germs still alive ([4]; 20 μg/ml) was “+++”, the germs still alive ([4]; 30 μg/ml) was “+” and the number of colonies ([4]; 40 μg/ml) was 9 colonies. The germs still alive ([4]; 60 μg/ml) was “-”, the germs still alive ([5]; 1 μg/ml) was “+++” and the number of colonies ([5]; 2 μg/ml) was 1 colonie. The number of colonies ([5]; 3 μg/ml) was 2 colonies, the germs still alive ([5]; 5 μg/ml) was “-” and the germs still alive ([6]; 1 μg/ml) was “+++”. The germs still alive ([6]; 2 μg/ml) was “+++”, the number of colonies ([6]; 3 μg/ml) was “a few” and the germs still alive ([6]; 5 μg/ml) was “-”. For the same compound, the germs still alive ([7]; 1 μg/ml) was “+++”, the germs still alive ([7]; 2 μg/ml) was “+” and the number of colonies ([7]; 3 μg/ml) was 3 colonies. For the same compound, the germs still alive ([7]; 5 μg/ml) was “-”, the germs still alive ([8]; 1 μg/ml) was “+++” and the germs still alive ([8]; 2 μg/ml) was “+++”. For the same compound, the number of colonies ([8]; 3 μg/ml) was 1 colonies, the germs still alive ([8]; 5 μg/ml) was “-” and the LD50 [9] was greater than 800 mg/kg. The abnormal symptoms ([9]; 800 mg/kg) was “none of the rats presented any abnormal symptoms”, the “Mice living on 8th day” value [10, 23] was 7/10 and the “Mice living on 8th day (%)” value [10, 23] was 70%. The “Mortality at 10h” value [10, 24] was 1, the “Mortality at 22h” value [10, 24] was 1 and the “Mortality at 70h” value [10, 24] was 1. For the same compound, the “Mice living on 8th day” value [10, 25] was 9/10, the “Mice living on 8th day (%)” value [10, 25] was 90% and the “Mortality at 70h” value ([10]; 1.0 mg repeated two times, oral, 10 mice) was 1. The “Mice living on 8th day” value [10, 26] was 10/10, the “Mice living on 8th day (%)” value [10, 26] was 100% and the “Mice living on 8th day” value [10, 27] was 10/10. The “Mice living on 8th day (%)” value [10, 27] was 100%, the antibacterial activity ([10]; administered orally, 1 hour and 5 hours after infection) was “good antibacterial activity” and the MIC ([11]; 24h) was 1 µg/mL (≈ 2.66 µM). For the same compound, the MIC ([11]; 48h) was 3 µg/mL (≈ 7.99 µM), the MIC ([11]; 72h) was 5 µg/mL (≈ 13.3 µM) and the MIC ([12]; 24h) was 30 µg/mL (≈ 79.9 µM). It also gave an MIC ([12]; 48h) of 60 µg/mL (≈ 160 µM), an MIC ([12]; 72h) greater than 100 µg/mL and an MIC ([13]; 24h) of 2 µg/mL (≈ 5.33 µM). It also gave an MIC ([13]; 48h) of 2 µg/mL (≈ 5.33 µM), an MIC ([13]; 72h) of 3 µg/mL (≈ 7.99 µM) and an MIC ([14]; 24h) of 30 µg/mL (≈ 79.9 µM). For the same compound, the MIC ([14]; 48h) was 40 µg/mL (≈ 107 µM), the MIC ([14]; 72h) was 100 µg/mL (≈ 266 µM) and the MIC ([15]; 24h) was 30 µg/mL (≈ 79.9 µM). For the same compound, the MIC ([15]; 48h) was 40 µg/mL (≈ 107 µM), the MIC ([15]; 72h) was 40 µg/mL (≈ 107 µM) and the MIC ([16]; 24h) was 40 µg/mL (≈ 107 µM). The MIC ([16]; 48h) was 40 µg/mL (≈ 107 µM), the MIC ([16]; 72h) was 60 µg/mL (≈ 160 µM) and the MIC ([17]; 24h) was 40 µg/mL (≈ 107 µM). For the same compound, the MIC ([17]; 48h) was 40 µg/mL (≈ 107 µM), the MIC ([17]; 72h) was 40 µg/mL (≈ 107 µM) and the MIC ([18]; 24h) was 0.6 µg/mL (≈ 1.6 µM). It also gave an MIC ([18]; 48h) greater than 40 µg/mL, an MIC ([19]; 24h) of 60 µg/mL (≈ 160 µM) and an MIC ([19]; 48h) of 60 µg/mL (≈ 160 µM). For the same compound, the MIC ([19]; 72h) was greater than 100 µg/mL, the MIC ([20]; 24h) was 30 µg/mL (≈ 79.9 µM) and the MIC ([20]; 48h) was 30 µg/mL (≈ 79.9 µM). For the same compound, the MIC ([20]; 72h) was 40 µg/mL (≈ 107 µM), the MIC ([21]; 24h) was 30 µg/mL (≈ 79.9 µM) and the MIC ([21]; 48h) was 30 µg/mL (≈ 79.9 µM). For the same compound, the MIC ([21]; 72h) was 30 µg/mL (≈ 79.9 µM), the solubility in ethanol ([22]; ethanol) was “slightly soluble” and the solubility in ether ([22]; ether) was “insoluble”.
